Data from patent US4350700A, “Pharmaceutical composition containing 1,3,5-substituted biuret compound” (Taiho Pharmaceutical Company, Limited, priority 1979, dated 1982).
Like-named read-outs stand apart in the source and are kept apart here.

What was measured:
ddy strain of male mice = assay: Acute toxicity (oral, general symptom and death observed for 7 days); type: in vivo; settings: 7 days
Protocol: (§1) Next, several tests for determining the pharmacological properties, in that acute toxicity, anti-pyretic activity, analgesic activity and anti-inflammatory activity of the present 1,3,5-substituted biuret compounds of the formula (1) were conducted and the test results are shown in Table (2). In the tests, each compounds to be tested was used as a suspension in 0.25% carboxymethylcellulose solution. Methods for testing are explained as follows:
The ddy strain of male mice (body weight, 20-25 g) were used as test animals. The mice were fasted overnight and the compound to be tested was administered orally. […] The lethal dose (mg/kg, body weight) of the test compound was determined in connection with the death number of mice/the number of mice tested. In Table 2, the values indicated with Δ marks are 50% lethal dose, LD50 (mg/kg, body weight).

[1] = test system: acetic acid-induced stretching symptom of mouse; assay: Analgesic activity, acetic acid-induced stretching method; type: in vivo, mice (ddy strain, male); settings: read-out: Analgesic activity, acetic acid-induced stretching method, inhibitory ratio
Protocol: as §1
(1) Acetic acid-induced stretching method
According to the method reported by Koster et.al., [Fed. Proc., Vol. 18, pp. 412 (1959)], the ddy strain of male mice (body weight, 20-25 g) were used as test animals. The mice were fasted overnight, 100 mg/kg body weight of the test compound was administered orally, then 1 hour after the administration, 0.2 ml of 0.7% acetic acid solution was injected intraperitoneally. The acetic acid-induced stretching symptom of mouse was observed. Analgesic activity of the test compound was calculated as the inhibitory ratio (%). In Table 2, the values in parentheses show the data obtained from the test by using the dosage other than 100 mg/kg body weight. Further, the values indicated with Δ marks show 50% effective dose, ED50 (mg/kg body weight).

[2] = test system: pain reaction of the mouse caused by a clamp; assay: Analgesic activity, Haffner method; type: in vivo, mice (ddy strain, male); settings: mice
Protocol: as §1
According to the modified method reported by Fujimura et al., [Bulletin of the Institute for Chemical Research, Kyoto University, No. 25, pp. 36 (1951)], the ddy strain of male mice (body weight, 20-25 g) were used as test animals. The mice were fasted overnight, 100 mg/kg body weight of the test compound was administered orally, then 45 minutes after the administration, the threshhold amount (1.5-2.5 mg/kg body weight) of morphine hydrochloride was injected subcutaneously. Then 1-hour pain reaction of the mouse caused by a clamp was observed. Analgesic activity of the test compound was calculated as the inhibitory ratio (%). In Table 2, the values in parentheses show the data obtained from the test by using the dosage other than 100 mg/kg body weight. Further, the values indicated with Δ marks show 50% effective dose, ED50 (mg/kg body weight).

[3] = test system: carrageenin-induced inflammation of the hindpaw of the rat; assay: Anti-inflammatory activity, acute carrageenin-induced inflammatory test; type: in vivo, rats (Wistar strain, male); settings: Rattus norvegicus, read-out: Anti-inflammatory activity, inflammation inhibitory ratio; for inhibition in vivo at 100 mg/kg: po, 3 h
Protocol: as §1
4. Anti-inflammatory Activity
According to the method of acute carrageenin-induced inflammatory test [Folia Pharmacologia Japonica, Vol. 56, pp. 575 (1960)], the Wistar strain of male rats (body weight, 150-180 g) were used as test animals. The rats were fasted overnight, 100 mg/kg body weight of the test compound was administered orally, then 1 hour after the administration, 0.1 ml of 1% carrageenin solution, as the inflammation inducing agent, was injected subcutaneously to the hindpaw of the rat and the volume of the hindpaw was measured at time sequences. Anti-inflammatory activity of the test compound was calculated as inflammation inhibitory ratio (%) at 3 hours after the injection of inflammation inducing agent.

Compound | Acute toxicity, death number of mice/number of mice tested (ddy strain of male mice; 2000 mg/kg oral) | inhibition in vivo at 100 mg/kg ([1]; po) [%] | Acute toxicity, death number of mice/number of mice tested (ddy strain of male mice; 500 mg/kg oral) | Acute toxicity, death number of mice/number of mice tested (ddy strain of male mice; 1000 mg/kg oral) | Analgesic activity, Haffner method, inhibitory ratio ([2]; 100 mg/kg oral) [%] | inhibition in vivo at 100 mg/kg [3] [%] | inhibition in vivo at 100 mg/kg ([1]; 100 mg/kg oral, mice) [%] | Analgesic activity, Haffner method, inhibitory ratio ([2]; 200 mg/kg oral) [%] | inhibition in vivo at 200 mg/kg ([3]; 200 mg/kg oral, rats, 3 hours after carrageenin) [%]
CN(C(N)=O)C(=O)Nc1ccccc1 [Compound No. 1] | 2/4 | 37.5 | – | – | – | – | – | – | –
CNC(=O)NC(=O)Nc1ccccc1 [Compound No. 2] | – | 75 | 0/4 | 4/4 | 50 | 28 | – | – | –
CN(C(=O)NCC(C)(C)O)C(=O)Nc1ccccc1 [Compound No. 57, 1-(2-Methyl-2-hydroxypropyl)-3-methyl-5-phenylbiuret] | 2/4 | – | – | 0/4 | 50 | – | 100 | – | –
CNC(=O)N(C)C(=O)Nc1ccccc1C(=O)O [compound 10, 1,3-Dimethyl-5-(2-carboxyphenyl)biuret] | 4/4 | 12.5 | – | 1/4 | – | – | – | – | –
CNC(=O)N(C)C(=O)NCc1ccccn1 [compound 13, 1,3-Dimethyl-5-(2-pyridylmethyl)biuret] | 2/4 | – | – | 0/4 | 37.5 | – | 25 | – | –
CCNC(=O)NC(=O)Nc1ccccn1 [compound 30, 1-Ethyl-5-(2-pyridyl)biuret] | 3/4 | – | – | 0/4 | 37.5 | 30 | – | – | –
CCCCNC(=O)NC(=O)Nc1ccccc1 [compound 46] | 0/4 | – | – | – | – | – | – | 25 | 84
CN(C(=O)NCC(O)CO)C(=O)Nc1ccccc1 (centres unmarked) [compound 58, 1-(2,3-Dihydroxypropyl)-3-methyl-5-phenylbiuret] | 0/4 | 37.5 | – | – | 37.5 | – | – | – | –
COCCNC(=O)N(C)C(=O)Nc1ccccc1 [compound 59, 1-(2-Methoxyethyl)-3-methyl-5-phenylbiuret] | 4/4 | – | – | 1/4 | 25 | – | 25 | – | –
CN(C(=O)NCC(=O)O)C(=O)Nc1ccccc1 [compound 60, 1-Carboxymethyl-3-methyl-5-phenylbiuret] | 0/4 | – | – | – | 25 | – | 25 | – | –
CC(=O)NC(=O)N(C)C(=O)Nc1ccccc1 [compound 61, 1-Acetyl-3-methyl-5-phenylbiuret] | 0/4 | 50 | – | – | 12.5 | – | – | – | –
CN(C(=O)NO)C(=O)Nc1ccccc1 [compound 62, 1-Hydroxy-3-methyl-5-phenylbiuret] | 1/4 | – | – | 0/4 | 25 | – | – | – | –
CN(C(=O)Nc1ccccc1)C(=O)Nc1ccccc1 [compound 64] | 0/4 | 37.5 | – | – | – | – | – | 12.5 | –
